The source of these data is ChEMBL document CHEMBL1123319, “Synthesis and biological activity of 5-phenylselenenyl-substituted pyrimidine nucleosides” (J Med Chem, 1986).

Molecules are shown by their SMILES. The source made the active and inactive calls. The rule behind the calls is not given here.

For data set [1], the system named is HL-60. Description: Anticancer activity was evaluated for the compound against ara-C resistant promyelocytic leukemia cell line that is Cyd-kinase deficient (HL-60-HGPRT-/dCK-). The format is functional. Particulars: Homo sapiens, read-out: ID50 (the source's name).
Data set [2] concerns the target Thymidylate synthase (Mus musculus) (UniProt P07607). The data set can be described thus: Inhibition of thymidylate synthase in L1210 cells. The format is cell-based.
Data set [3] in a line: compound was evaluated for its ability to inhibit tritium release using 1 uM [5-3H]-dUrd for the cellular enzyme assay. The format is functional.
Data set [4] has as its system HL-60. Description: Anticancer activity was evaluated for the compound against parent promyelocytic leukemia cell line (HL-60-GHPRT+/dCK+). The format is functional. As to conditions: Homo sapiens, read-out: ED50 (the source's name).
For data set [5], the system named is HL-60. The data set can be described thus: Anticancer activity of the compound against ara-C resistant promyelocytic leukemia cell line that is Cyd-kinase deficient (HL-60-HGPRT-/dCK-) is determined. The format is functional. As to conditions: Homo sapiens, read-out: ED50 (the source's name).
The next data set has as its system Human alphaherpesvirus 1. Description: (§1) Compound was tested in mice for the cytotoxicity against the herpes simplex virus type 1 (strain F) in plaque; Inactive. The format is organism-based. As to conditions: human alphaherpesvirus 1, in vivo.
Data set [6] has as its target Thymidylate synthase (Mus musculus) (UniProt P07607). Description: Compound was evaluated for its ability to inhibit tritium release using 1 uM [5-3H]-dCyd for the cellular enzyme assay.
Data set [7] shares this target. The data set can be described thus: compound was evaluated for its ability to inhibit tritium release using 1 uM [5-3H]-dUrd for the cellular enzyme assay; Inactive.
For the next data set, the species on record is Mus musculus. The description is as §1. The format is functional, organism-based.

Sequence of Thymidylate synthase (Mus musculus) (P07607 whole entry, looked up): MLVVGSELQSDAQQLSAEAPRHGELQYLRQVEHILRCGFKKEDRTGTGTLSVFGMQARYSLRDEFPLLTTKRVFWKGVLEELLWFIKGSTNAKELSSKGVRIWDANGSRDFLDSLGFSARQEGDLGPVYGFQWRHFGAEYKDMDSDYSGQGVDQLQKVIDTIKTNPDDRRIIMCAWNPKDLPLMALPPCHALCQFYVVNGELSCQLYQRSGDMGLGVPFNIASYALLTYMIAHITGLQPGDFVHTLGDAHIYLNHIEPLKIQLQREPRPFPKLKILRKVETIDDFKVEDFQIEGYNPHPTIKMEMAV

For `Nc1nc(=O)n([C@@H]2O[C@H](CO)[C@@H](O)[C@@H]2O)cc1[Se]c1ccccc1`, the IC50 in the data set on HL-60 [1] was determined as 375 µM. The ED50 in data set [2] came to 25 µM. In data set [3], this compound displayed an ID50 of 60 µM.
Consider `Nc1ccn([C@@H]2O[C@H](CO)[C@@H](O)[C@@H]2O)c(=O)n1` [CYTARABINE], for which the EC50 in the data set with HL-60 [4] was found to be 0.047 µM; with HL-60 [5] it was 30 µM. This compound displayed an ED50 in [2] of 0.03 µM.
`O=c1[nH]c(=O)n([C@H]2C[C@H](O)[C@@H](CO)O2)cc1[Se]c1ccccc1`: in the data set on Human alphaherpesvirus 1, the LD50 entry is “Not Active”. Besides, the ID50 in data set [6] came to 70 µM. Besides, in data set [7], the ID50 entry is “inactive”.
As to `O=c1[nH]c(=O)n([C@@H]2O[C@H](CO)[C@@H](O)[C@@H]2O)cc1[Se]c1ccccc1`, the EC50 in the data set on HL-60 [4] worked out at 88 µM. The LD50 result in the data set listed under Mus musculus is “inactive”.
